Results taken from patent US20250263395A1, “COMPOUNDS THAT MEDIATE PROTEIN DEGRADATION AND METHODS OF USE THEREOF” (Monte Rosa Therapeutics AG, priority 2022, published 2025).

Assays:
CDK2 = CDK2 (Homo sapiens (Human), UniProt P24941); test: CDK2 NanoBiT assay (HiBiT-tagged CDK2 degradation); assay type: cell-based; conditions: C-terminal HiBiT tag on CDK2, LgBiT, 24 hours; for Dmax: HEK293, HEK293 clonal line
Method: Example 145. NanoBiT Assay
A HEK293 clonal line with a CRISPR knock-in C-terminal HiBiT tag on CDK2 and stably expressing LgBiT protein was obtained from Promega (Madison, WI). Cells were plated at 5000 cells per well using Multiflo (BioTek) in 384-well white solid bottom plates (Corning, 3570BC) in 25 ul volume in DMEM media (DMEM, high glucose, HEPES, no phenol red (ThermoFisher Scientific, 21063029)) containing 10% FBS (Corning, 35-075-CV), 1% Peniciliin/Streptomycin ((ThermoFisher Scientific, 15140-122), and 1% Endurazine (Nano-Glo Endurazine Live Cell Substrate (Promega, N2571)). Cells were incubated for 16 hours at 37 C, 5% CO2. 75 nL of a compound at 30 μM were dosed into the plate using an Echo® 650 liquid handler (Labcyte). Cells were incubated at 37° C., 5% CO2 for 24 hours and then signal was read on a Pherastar FSX using “LUM plus” optic module.
Analysis was performed in Scinamic (Scinamic, Cambridge, MA). Luminescence response (R) was calculated by the formula: response=100*(S−N)/(P−N) where S is the signal of the well, N and P the mean negative and positive control values respectively of the same plate. The luminescence response was then fitted in Scinamic using a 3-parameter agonist logistic fit (hillslope=1, EC50>0, top/bottom unconstrained).

CRBN-DDB1 = CRBN-DDB1 (Homo sapiens (Human), UniProt Q96SW2); test: CRBN HTRF assay (Cy5-Thalidomide probe displacement); assay type: binding; conditions: CRBN-DDB1 2.5 nM, Cy5-Thalidomide 100 nM, 30 min; Ki from geometric mean IC50 by Cheng-Prusoff
Sequence of CRBN-DDB1 (Q96SW2 whole entry): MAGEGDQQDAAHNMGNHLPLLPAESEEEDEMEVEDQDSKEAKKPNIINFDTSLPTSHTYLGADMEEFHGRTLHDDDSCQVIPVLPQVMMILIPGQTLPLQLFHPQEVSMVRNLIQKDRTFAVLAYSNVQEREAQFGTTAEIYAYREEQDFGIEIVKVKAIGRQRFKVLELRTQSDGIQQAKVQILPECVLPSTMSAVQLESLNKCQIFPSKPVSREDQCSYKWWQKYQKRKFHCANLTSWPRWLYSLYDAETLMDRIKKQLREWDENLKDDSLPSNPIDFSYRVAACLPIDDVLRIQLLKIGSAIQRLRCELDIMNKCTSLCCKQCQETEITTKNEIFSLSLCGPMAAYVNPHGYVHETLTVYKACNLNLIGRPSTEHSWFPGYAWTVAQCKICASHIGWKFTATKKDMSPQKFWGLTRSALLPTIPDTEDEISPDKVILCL
Sequence of CRBN-DDB1 (Q16531 whole entry partner): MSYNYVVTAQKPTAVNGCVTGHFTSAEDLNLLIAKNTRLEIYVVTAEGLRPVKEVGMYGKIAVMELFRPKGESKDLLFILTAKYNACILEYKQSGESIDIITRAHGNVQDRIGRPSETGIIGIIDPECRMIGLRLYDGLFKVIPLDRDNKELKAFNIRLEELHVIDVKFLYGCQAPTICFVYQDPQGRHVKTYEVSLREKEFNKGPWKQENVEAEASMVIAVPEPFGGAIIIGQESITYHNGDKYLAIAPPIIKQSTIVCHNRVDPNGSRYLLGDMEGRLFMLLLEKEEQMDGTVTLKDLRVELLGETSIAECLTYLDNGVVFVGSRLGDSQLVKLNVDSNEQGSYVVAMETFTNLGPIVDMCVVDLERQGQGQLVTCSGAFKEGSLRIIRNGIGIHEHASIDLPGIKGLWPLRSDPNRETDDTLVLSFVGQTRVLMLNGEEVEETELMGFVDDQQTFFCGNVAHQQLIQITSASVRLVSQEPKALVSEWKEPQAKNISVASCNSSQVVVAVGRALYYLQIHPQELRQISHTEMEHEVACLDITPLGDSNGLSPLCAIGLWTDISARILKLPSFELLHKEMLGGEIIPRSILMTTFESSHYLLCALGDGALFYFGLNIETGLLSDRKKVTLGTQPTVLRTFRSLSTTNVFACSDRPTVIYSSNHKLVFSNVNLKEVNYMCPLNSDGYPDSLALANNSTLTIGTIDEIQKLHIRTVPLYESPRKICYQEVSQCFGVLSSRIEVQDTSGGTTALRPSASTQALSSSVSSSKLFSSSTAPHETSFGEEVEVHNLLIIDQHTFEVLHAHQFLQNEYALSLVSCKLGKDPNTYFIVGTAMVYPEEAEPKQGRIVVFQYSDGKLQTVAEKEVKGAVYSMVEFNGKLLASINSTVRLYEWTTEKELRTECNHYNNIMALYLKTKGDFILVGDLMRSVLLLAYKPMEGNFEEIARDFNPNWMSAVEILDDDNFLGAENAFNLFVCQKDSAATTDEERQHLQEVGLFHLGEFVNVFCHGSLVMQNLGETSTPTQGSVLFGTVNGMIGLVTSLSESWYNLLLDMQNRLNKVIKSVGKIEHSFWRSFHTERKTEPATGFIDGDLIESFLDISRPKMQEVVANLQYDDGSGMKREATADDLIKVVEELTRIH
Method: Compound activity was monitored in a Homogenous Time-Resolved Fluorescence (HTRF) assay using 1-[5-({2-[2-(2-{[2-(2,6-dioxopiperidin-3-yl)-1,3-dioxo-2,3-dihydro-1H-isoindol-4-yl]oxy}acetamido)ethoxy]ethyl}carbamoyl)pentyl]-3,3-dimethyl-2-[(1E,3E)-5-[(2E)-1,3,3-trimethyl-5-sulfo-2,3-dihydro-1H-indol-2-ylidene]penta-1,3-dien-1-yl]-3H-indol-1-ium-5-sulfonate as a fluorescent probe. Biochemical assays were conducted in Greiner white 384 well HiBase plates (Cat. No 784075-25) in 10 μL total volume. A one pot detection solution of CRBN-DDB1 (2.5 nM), Anti-His Terbium Cryptate Gold (1×, PerkinElmer Cat. #: 61HI2TLB), and Cy5-Thalidomide (100 nM, Tenova Cat.: T52461) was prepared in 20 mM HEPES, 20 mM NaCl, 0.2 mM TCEP, 0.2 mM EDTA, and 0.005% Tween20 was dispensed to each assay plate. Compounds were stored in dry, ambient temperatures at 10 mM. A 10-point, 1:3 dilution series was prepared from 10 mM stock concentrations in Echo-compatible LDV plates. 10 nL of each compound dilution series was dispensed into assays wells using an Echo 650 (Labcyte inc. USA). 10 nL of 10 mM Lenalidomide was transferred into the active-control wells for the assay and 10 nL of DMSO was transferred into the neutral-control wells. The assay was then allowed to incubate for 30 min at ambient temperature after transferring compound. Plate measurements were taken on a Pherastar FSX (BMG Labtech, Germany) using the HTRF Red filter (Ex. 337 nm, em1: 620 nm, em2: 665 nm) (Flashes: 50, Integration time: 60-400 us, Z-height: 10 mm, Ratio-multiplier: 10,000). The HTRF signal was then subsequently normalized to the neutral and active controls. Analysis and IC50 values were derived using KNIME analytics (KNIME Zurich) transformation and fitting within Collaborative Drug Discovery (Collaborative Drug Discovery USA). Ki was derived from the geometric mean of the IC50 values using the Cheng-Prustoff transformation.

| Dmax (CDK2) [%] | Ki (CRBN-DDB1) [nM] | CDK2 NanoBiT Dmax (%) (CDK2; HEK293 clonal line) | Compound |
| --- | --- | --- | --- |
| > 80 |  |  | O=C1CCC(c2c(F)cc(N3CC(NC(=O)OCC4CC5(CCC5)C4)C3)cc2F)C(=O)N1 (centres unmarked) [Compound 1, spiro[3.3]heptan-2-ylmethyl (1-(4-(2,6-dioxopiperidin-3-yl)-3,5-difluorophenyl)azetidin-3-yl)carbamate] |
| > 80 | ≤ 100 |  | O=C1CCC(c2c(F)cc(N3CC(NC(=O)OC[C@@H]4C[C@H]5CC[C@@H]4C5)C3)cc2F)C(=O)N1 (stereo partly drawn) [Compound 3, (1R,2R,4S)-bicyclo[2.2.1]heptan-2-ylmethyl (1-(4-(2,6-dioxopiperidin-3-yl)-3,5-difluorophenyl)azetidin-3-yl)carbamate] |
|  | ≤ 100 | D (D represents Dmax value of >80%) | O=C1CCC(c2c(F)cc(N3CC(NC(=O)OC45CC(C(=O)c6ccccc6)(C4)C5)C3)cc2F)C(=O)N1 (centres unmarked) [Compound 4] |
| 50 to 80 |  |  | Cc1ccnc(N2CC(OC(=O)NC3CN(c4cc(F)c(C5CCC(=O)NC5=O)c(F)c4)C3)C2)c1 (centres unmarked) [Compound 6, 1-(4-methylpyridin-2-yl)azetidin-3-yl (1-(4-(2,6-dioxopiperidin-3-yl)-3,5-difluorophenyl)azetidin-3-yl)carbamate] |
| 10 to 50 | ≤ 100 |  | Cn1nccc1N1CC(OC(=O)NC2CN(c3cc(F)c(C4CCC(=O)NC4=O)c(F)c3)C2)C1 (centres unmarked) [Compound 7, 1-(1-methyl-1H-pyrazol-5-yl)azetidin-3-yl (1-(4-(2,6-dioxopiperidin-3-yl)-3,5-difluorophenyl)azetidin-3-yl)carbamate] |
| 50 to 80 | ≤ 100 |  | CN(C(=O)N1CC(OC(=O)NC2(C)CN(c3cc(F)c(C4CCC(=O)NC4=O)c(F)c3)C2)C1)C1CC1 (centres unmarked) [Compound 12, 1-(cyclopropyl(methyl)carbamoyl)azetidin-3-yl (1-(4-(2,6-dioxopiperidin-3-yl)-3,5-difluorophenyl)-3-methylazetidin-3-yl)carbamate] |
| 50 to 80 | ≤ 100 |  | Cc1cc(N2CC(NC(=O)OC3CN(C(=O)N(C)C4CC4)C3)C2)cc(F)c1C1CCC(=O)NC1=O (centres unmarked) [Compound 15, 1-(cyclopropyl(methyl)carbamoyl)azetidin-3-yl (1-(4-(2,6-dioxopiperidin-3-yl)-3-fluoro-5-methylphenyl)azetidin-3-yl)carbamate] |
| 10 to 50 | ≤ 100 |  | CN(C(=O)N1CC[C@H](OC(=O)NC2CN(c3cc(F)c(C4CCC(=O)NC4=O)c(F)c3)C2)C1)C1CC1 (stereo partly drawn) [Compound 16, (S)-1-(cyclopropyl(methyl)carbamoyl)pyrrolidin-3-yl (1-(4-(2,6-dioxopiperidin-3-yl)-3,5-difluorophenyl)azetidin-3-yl)carbamate] |
| 10 to 50 | ≤ 100 |  | CN(C)C(=O)N1CC[C@@H](OC(=O)NC2CN(c3cc(F)c(C4CCC(=O)NC4=O)c(F)c3)C2)C1 (stereo partly drawn) [Compound 18, (R)-1-(dimethylcarbamoyl)pyrrolidin-3-yl (1-(4-(2,6-dioxopiperidin-3-yl)-3,5-difluorophenyl)azetidin-3-yl)carbamate] |
| 50 to 80 |  |  | O=C1CCC(c2c(F)cc(N3CC(NC(=O)OC4CN(C(=O)N5CCCC5)C4)C3)cc2F)C(=O)N1 (centres unmarked) [Compound 32] |

Continued, compound first:

| Compound | Dmax (CDK2) [%] | Ki (CRBN-DDB1) [nM] | CDK2 NanoBiT Dmax (%) (CDK2; HEK293 clonal line) |
| --- | --- | --- | --- |
| COc1c(N2CC(C)(NC(=O)OCC3CC4(CCC4)C3)C2)ccc(C2CCC(=O)NC2=O)c1F (centres unmarked) [Compound 2, spiro[3.3]heptan-2-ylmethyl (1-(4-(2,6-dioxopiperidin-3-yl)-3-fluoro-2-methoxyphenyl)-3-methylazetidin-3-yl)carbamate] | 50 to 80 | 100 to 1000 |  |
| O=C1CCC(c2c(F)cc(N3CC(NC(=O)OC4CN(C(=O)N5Cc6ccccc6C5)C4)C3)cc2F)C(=O)N1 (centres unmarked) [Compound 5, 1-(isoindoline-2-carbonyl)azetidin-3-yl (1-(4-(2,6-dioxopiperidin-3-yl)-3,5-difluorophenyl)azetidin-3-yl)carbamate] | 50 to 80 | ≤ 100 |  |
| CN(C(=O)N1CC(OC(=O)NC2CN(c3cc(F)c(C4CCC(=O)NC4=O)c(F)c3)C2)C1)c1cccc(Cl)c1 (centres unmarked) [Compound 8, 1-((3-chlorophenyl)(methyl)carbamoyl)azetidin-3-yl (1-(4-(2,6-dioxopiperidin-3-yl)-3,5-difluorophenyl)azetidin-3-yl)carbamate] | > 80 | ≤ 100 |  |
| O=C1CCC(c2c(F)cc(N3CC(NC(=O)OC4CN(C(=O)N5CCc6ccccc65)C4)C3)cc2F)C(=O)N1 (centres unmarked) [Compound 9, 1-(indoline-1-carbonyl)azetidin-3-yl (1-(4-(2,6-dioxopiperidin-3-yl)-3,5-difluorophenyl)azetidin-3-yl)carbamate] | > 80 | ≤ 100 |  |
| Cc1cccc(N(C)C(=O)N2CC(OC(=O)NC3CN(c4cc(F)c(C5CCC(=O)NC5=O)c(F)c4)C3)C2)c1 (centres unmarked) [Compound 10, 1-(methyl(m-tolyl)carbamoyl)azetidin-3-yl (1-(4-(2,6-dioxopiperidin-3-yl)-3,5-difluorophenyl)azetidin-3-yl)carbamate] | > 80 |  |  |
| CN(C(=O)N1CC(OC(=O)NC2(C(F)(F)F)CN(c3cc(F)c(C4CCC(=O)NC4=O)c(F)c3)C2)C1)C1CC1 (centres unmarked) [Compound 11, 1-(cyclopropyl(methyl)carbamoyl)azetidin-3-yl (1-(4-(2,6-dioxopiperidin-3-yl)-3,5-difluorophenyl)-3-(trifluoromethyl)azetidin-3-yl)carbamate] | 50 to 80 | ≤ 100 |  |
| COc1ccc(N(C)C(=O)N2CC(OC(=O)NC3CN(c4cc(F)c(C5CCC(=O)NC5=O)c(F)c4)C3)C2)cc1 (centres unmarked) [Compound 13, 1-((4-methoxyphenyl)(methyl)carbamoyl)azetidin-3-yl(1-(4-(2,6-dioxopiperidin-3-yl)-3,5-difluorophenyl)azetidin-3-yl)carbamate] | 50 to 80 | ≤ 100 |  |
| CN(C)C(=O)N1CC(OC(=O)NC2(C)CN(c3cc(F)c(C4CCC(=O)NC4=O)c(F)c3)C2)C1 (centres unmarked) [Compound 14, 1-(dimethylcarbamoyl)azetidin-3-yl (1-(4-(2,6-dioxopiperidin-3-yl)-3,5-difluorophenyl)-3-methylazetidin-3-yl)carbamate] | 10 to 50 | ≤ 100 |  |
| CN(C(=O)N1CC(OC(=O)NC2CN(c3cc(F)c(C4CCC(=O)NC4=O)c(F)c3)C2)C1)c1ccccc1 (centres unmarked) [Compound 17, 1-(methyl(phenyl)carbamoyl)azetidin-3-yl (1-(4-(2,6-dioxopiperidin-3-yl)-3,5-difluorophenyl)azetidin-3-yl)carbamate] | 50 to 80 | ≤ 100 |  |
| N#Cc1c(N2CC(NC(=O)OCC3CC4(CCC4)C3)C2)ccc(C2CCC(=O)NC2=O)c1Cl (centres unmarked) [Compound 85, spiro[3.3]heptan-2-ylmethyl (1-(3-chloro-2-cyano-4-(2,6-dioxopiperidin-3-yl)phenyl)azetidin-3-yl)carbamate] | 50 to 80 |  |  |
| Cc1ccc(C)c(N(C)C(=O)C23CC(OC(=O)NC4CN(c5cc(F)c(C6CCC(=O)NC6=O)c(F)c5)C4)(C2)C3)c1 (centres unmarked) [Compound 111] | 50 to 80 |  |  |
| [2H]C([2H])([2H])N(C(=O)N1CC(OC(=O)NC2CN(c3cc(F)c(C4CCC(=O)NC4=O)c(F)c3)C2)C1)c1ccc(C)cc1 (centres unmarked) [Compound 118, 1-((methyl-d3)(p-tolyl)carbamoyl)azetidin-3-yl (1-(4-(2,6-dioxopiperidin-3-yl)-3,5-difluorophenyl)azetidin-3-yl)carbamate] |  | ≤ 100 |  |
| [2H]C([2H])([2H])N(C(=O)N1CC(OC(=O)NC2CN(c3cc(F)c(C4CCC(=O)NC4=O)c(F)c3)C2)C1)c1ccc(Cl)cc1 (centres unmarked) [Compound 119, 1-((4-chlorophenyl)(methyl-d3)carbamoyl)azetidin-3-yl (1-(4-(2,6-dioxopiperidin-3-yl)-3,5-difluorophenyl)azetidin-3-yl)carbamate] |  | ≤ 100 |  |
